# What was measured:
# ISRE reporter signal = assay: ISRE luciferase reporter assay, THP-1 cells co-treated with compound and cGAMP; format: cell-based, Human; conditions: THP-1 cells, 20 μM of each compound, co-treated with cGAMP (1 μg/ml), 24 hours
# Experimental: (§1) Human monocytic THP-1 wild-type (WT) and STING knockout (KO) cell lines were obtained from InvivoGen. Cells were cultured in 1×RPMI 1640 medium containing 10% fetal bovine serum (FBS, Hyclone), 2.05 mM L-glutamine (Hyclone) and 1% penicillin (Corning) in a humidified incubator at 37° C. under 5% CO2.
# To confirm immune responses, THP-1 cells were placed in 384-well plates (Grenier), and treated with each compound and cGAMP (1 μg/ml), and after 24 hours, ISRE activity was analyzed. QUANTI-Luc assay (InvivoGen) was performed using the cell culture supernatant to confirm the luciferase reporter gene signal. Fluorescent signals were measured using a TECAN micro plate reader SPARK, and the results were normalized to DMSO control.
# (§2) THP-1 cells were co-treated with each of 86 indolizine derivatives and a very small amount of cGAMP (1 μg/ml), the immune response of the THP-1 cells was examined by ISRE reporter assay, and the cytotoxicity of co-treatment was also evaluated (Table 1). All results were compared by normalization to the reporter assay results obtained by treatment with cGAMP alone. […] Thus, Compound 42 was used in subsequent experiments.
# THP-1 cells = assay: Cell viability assay (CellTiter Clo) in THP-1 cells; format: cell-based, Human; conditions: THP-1 cells, 20 μM of each compound, co-treated with cGAMP (1 μg/ml)
# Experimental: as §1
# Cells were analyzed using CellTiter Clo (CTG, Promega). […] was measured using a TECAN micro plate reader SPARK. Results were normalized to DMSO control.
# as §2
SMILES,Normalized RU (relative unit of ISRE reporter signal) (ISRE reporter signal),Normalized cell viability (THP-1 cells)
CCN(CC)c1ccc(C(=O)c2cc(-c3ccc(C(F)(F)F)cc3)c3cc(C(F)(F)F)ccn23)cc1 [Compound 16],1.66,1.22
CC(=O)c1ccn2c(C(=O)c3ccc(C(F)(F)F)cc3)cc(-c3ccc(C(F)(F)F)cc3)c2c1 [Compound 21],1.86,1.19
COc1ccc(C(=O)c2cc(-c3ccc(C(F)(F)F)cc3)c3ccccn23)cc1 [Compound 51],6.08,1.32
CC(=O)c1cc(-c2ccc(N(C)C)cc2)c2ccccn12 [Compound 87],2.59,1.30
COc1ccc(-c2cc(C(=O)c3ccc(C(F)(F)F)cc3)n3ccc(C(F)(F)F)cc23)cc1 [Compound 4],1.33,1.05
COc1ccc(-c2cc(C(C)=O)n3ccccc23)cc1 [Compound 86],2.46,1.22
COc1ccc(C(=O)c2cc(-c3ccc(N(C)C)cc3)c3cc(C(F)(F)F)ccn23)cc1 [Compound 15],1.18,1.17
CCN(CC)c1ccc(C(=O)c2cc(-c3ccc(N(C)C)cc3)c3ccccn23)cc1 [Compound 60],1.25,1.28
CCN(CC)c1ccc(C(=O)c2cc(-c3ccc(C(C)=O)cc3)c3ccccn23)cc1 [Compound 57],0.93,1.40
CCCN(CCC)c1ccc(-c2cc(C(=O)c3ccccc3)n3ccccc23)cc1 [Compound 71],0.96,1.01
Nc1ccc(-c2cc(C(=O)c3ccccc3)n3ccccc23)cc1 [Compound 69],2.47,1.19
CC(=O)c1ccn2c(C(=O)c3ccccc3)cc(-c3ccc(N)cc3)c2c1 [Compound 63],2.08,0.98
CC(=O)c1ccn2c(C(C)=O)cc(-c3ccccc3)c2c1 [Compound 80],1.98,1.22
CCN(CC)c1ccc(C(=O)c2cc(-c3ccc(C(C)=O)cc3)c3cc(C(C)=O)ccn23)cc1 [Compound 37],1.62,1.25
CC(=O)c1ccc(-c2cc(C(=O)c3ccc(C(F)(F)F)cc3)n3ccc(C(C)=O)cc23)cc1 [Compound 22],1.31,1.09
CC(=O)c1ccc(-c2cc(C(=O)c3ccccc3)n3ccccc23)cc1 [Compound 47],1.15,1.12
CC(=O)c1ccn2c(C(=O)c3ccccc3)cc(-c3ccc(C(F)(F)F)cc3)c2c1 [Compound 26],1.60,1.21
O=C(c1ccc(C(F)(F)F)cc1)c1cc(-c2ccccc2)c2cc(C(F)(F)F)ccn12 [Compound 3],1.40,1.04
O=C(c1ccccc1)c1cc(-c2ccncc2)c2ccccn12 [Compound 67],2.03,1.34
O=C(c1ccccc1)c1cc(-c2ccccc2)c2cc(C(F)(F)F)ccn12 [Compound 8],1.18,1.06
COc1ccc(-c2cc(C(C)=O)n3ccc(C(C)=O)cc23)cc1 [Compound 81],2.27,1.17
COc1ccc(-c2cc(C(=O)c3ccccc3)n3ccc(C(F)(F)F)cc23)cc1 [Compound 9],1.21,1.03
O=C(c1ccc(C(F)(F)F)cc1)c1cc(-c2ccccc2)c2ccccn12 [Compound 43],1.08,1.13
COc1ccc(-c2cc(C(=O)c3ccccc3)n3ccccc23)cc1 [Compound 49],1.17,1.21
COc1ccc(C(=O)c2cc(-c3ccc(OC)cc3)c3ccccn23)cc1 [Compound 54],1.51,1.16

SMILES,Normalized RU (relative unit of ISRE reporter signal) (ISRE reporter signal),Normalized cell viability (THP-1 cells)
CCN(CC)c1ccc(-c2cc(C(=O)c3ccccc3)n3ccc(C(C)=O)cc23)cc1 [Compound 64],1.13,1.24
COc1ccc(C(=O)c2cc(-c3ccc(N(C)C)cc3)c3cc(C(C)=O)ccn23)cc1 [Compound 35],2.22,1.26
CCN(CC)c1ccc(C(=O)c2cc(-c3ccc(OC)cc3)c3ccccn23)cc1 [Compound 59],1.27,1.09
CC(=O)c1ccn2c(C(=O)c3ccccc3)cc(-c3ccc(C(=O)O)cc3)c2c1 [Compound 66],1.16,1.32
CC(=O)c1ccn2c(C(=O)c3ccccc3)cc(-c3ccccc3)c2c1 [Compound 28],1.69,1.13
CC(=O)c1ccc(-c2cc(C(C)=O)n3ccccc23)cc1 [Compound 84],2.37,1.10
O=C(c1ccc(C(F)(F)F)cc1)c1cc(-c2ccc(C(F)(F)F)cc2)c2ccccn12 [Compound 41],3.85,1.25
O=C(c1ccc(C(F)(F)F)cc1)c1cc(-c2ccc(C(F)(F)F)cc2)c2cc(C(F)(F)F)ccn12 [Compound 1],1.46,1.10
CC(=O)c1ccc(-c2cc(C(=O)c3ccccc3)n3ccc(C(F)(F)F)cc23)cc1 [Compound 7],1.54,1.20
CN(C)c1ccc(-c2cc(C(=O)c3ccccc3)n3ccccc23)cc1 [Compound 50],1.18,1.30
CCN(CC)c1ccc(C(=O)c2cc(-c3ccc(C(F)(F)F)cc3)c3ccccn23)cc1 [Compound 56],1.40,1.23
COc1ccc(C(=O)c2cc(-c3ccc(C(F)(F)F)cc3)c3cc(C(C)=O)ccn23)cc1 [Compound 31],3.42,1.33
CCN(CC)c1ccc(-c2cc(C(=O)c3ccccc3)n3ccccc23)cc1 [Compound 70],1.21,1.19
COc1ccc(C(=O)c2cc(-c3ccc(OC)cc3)c3cc(C(F)(F)F)ccn23)cc1 [Compound 14],1.48,1.30
CCN(CC)c1ccc(C(=O)c2cc(-c3ccc(N(C)C)cc3)c3cc(C(F)(F)F)ccn23)cc1 [Compound 20],1.46,1.05
CCN(CC)c1ccc(C(=O)c2cc(-c3ccccc3)c3ccccn23)cc1 [Compound 58],0.66,1.01
COc1ccc(C(=O)c2cc(-c3ccc(C(C)=O)cc3)c3cc(C(F)(F)F)ccn23)cc1 [Compound 12],1.31,1.25
CC(=O)c1ccn2c(C(=O)c3ccc(C(F)(F)F)cc3)cc(-c3ccccc3)c2c1 [Compound 23],1.23,1.11
COc1ccc(-c2cc(C(=O)c3ccc(C(F)(F)F)cc3)n3ccccc23)cc1 [Compound 44],0.89,1.24
COc1ccc(C(=O)c2cc(-c3ccc(C(C)=O)cc3)c3ccccn23)cc1 [Compound 52],1.61,1.15
COc1ccc(C(=O)c2cc(-c3ccccc3)c3ccccn23)cc1 [Compound 53],1.30,1.18
CN(C)c1ccc(-c2cc(C(=O)c3ccc(C(F)(F)F)cc3)n3ccccc23)cc1 [Compound 45],1.28,1.22
COc1ccc(C(=O)c2cc(-c3ccc(OC)cc3)c3cc(C(C)=O)ccn23)cc1 [Compound 34],1.52,1.26
COc1ccc(C(=O)c2cc(-c3ccc(C(C)=O)cc3)c3cc(C(C)=O)ccn23)cc1 [Compound 32],2.91,1.11
CC(=O)c1cc(-c2ccccc2)c2cc(C(F)(F)F)ccn12 [Compound 75],1.76,1.25

# From patent publication US20230390319A1, “INTERFERON GENE STIMULATOR COMPOSITION COMPRISING INDOLIZINE DERIVATIVE AS ACTIVE INGREDIENT” (AJOU UNIVERSITY INDUSTRY-ACADEMIC COOPERATION FOUNDATION, priority 2020, published 2023)
